Measured values taken from patent US8901118B2, “Compounds and methods for kinase modulation, and indications therefor” (Plexxikon Inc., priority 2010, dated 2014).

Columns and labels:
[1] = target: T1, Flt-3 kinase (Homo sapiens, UniProt P36888); test: Flt-3 kinase biochemical activity assay (AlphaScreen); conditions: 100 μM ATP; read-out: Biochemical Inhibition IC50 Flt3
T1 sequence (P36888 27-993): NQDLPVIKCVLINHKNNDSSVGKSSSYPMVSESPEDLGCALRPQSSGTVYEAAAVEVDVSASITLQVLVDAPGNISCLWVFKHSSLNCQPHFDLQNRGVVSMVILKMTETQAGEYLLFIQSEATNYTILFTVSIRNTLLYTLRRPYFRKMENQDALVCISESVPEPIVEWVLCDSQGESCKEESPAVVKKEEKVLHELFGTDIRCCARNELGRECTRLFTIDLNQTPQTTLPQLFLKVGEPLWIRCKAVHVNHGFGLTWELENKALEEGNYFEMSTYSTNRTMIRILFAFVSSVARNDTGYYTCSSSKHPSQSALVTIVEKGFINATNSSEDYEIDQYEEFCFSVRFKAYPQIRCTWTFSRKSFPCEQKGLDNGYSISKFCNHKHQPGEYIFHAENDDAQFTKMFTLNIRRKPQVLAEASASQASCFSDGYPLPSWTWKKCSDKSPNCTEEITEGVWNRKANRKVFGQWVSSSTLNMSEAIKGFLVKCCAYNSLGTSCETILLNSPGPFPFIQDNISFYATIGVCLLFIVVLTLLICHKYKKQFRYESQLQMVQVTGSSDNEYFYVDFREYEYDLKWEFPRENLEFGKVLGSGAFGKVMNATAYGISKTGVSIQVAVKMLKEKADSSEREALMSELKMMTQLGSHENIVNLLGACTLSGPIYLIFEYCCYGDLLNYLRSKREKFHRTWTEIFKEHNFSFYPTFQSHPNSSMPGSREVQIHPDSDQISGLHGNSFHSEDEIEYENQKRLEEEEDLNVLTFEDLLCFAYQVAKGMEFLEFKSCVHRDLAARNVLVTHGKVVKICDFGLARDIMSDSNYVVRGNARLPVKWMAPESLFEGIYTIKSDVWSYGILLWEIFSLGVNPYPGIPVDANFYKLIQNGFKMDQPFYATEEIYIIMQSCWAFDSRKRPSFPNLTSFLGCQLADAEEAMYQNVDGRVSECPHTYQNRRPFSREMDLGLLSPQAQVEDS
Summary of the method: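 Recombinant kinase (1 ng/well) phosphorylated 30 nM biotin-(E4Y)10 with 100 μM ATP in Hepes pH 7.5 buffer with Mg/Mn, 5% DMSO, for 1 h at room temperature. EDTA-containing AlphaScreen streptavidin donor/PY20 acceptor beads detected phosphotyrosine; IC50 was derived from signal versus concentration.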

[2] = target: TrkA kinase (Homo sapiens, UniProt P04629); test: TrkA kinase biochemical activity assay (AlphaScreen); conditions: 100 μM ATP; read-out: Biochemical Inhibition IC50 TrkA
Summary of the method: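 IC50 values come from AlphaScreen PY20/streptavidin bead signal versus compound concentration. Kinase reaction: 1 ng/well TrkA, 100 μM ATP, 30 nM biotin-(E4Y)10 substrate, Mn2+-containing Hepes buffer pH 7.5, 5% DMSO, 40 min, room temperature; TrkC assayed by the same approach.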

TrkA kinase, sequence (P04629 33-796): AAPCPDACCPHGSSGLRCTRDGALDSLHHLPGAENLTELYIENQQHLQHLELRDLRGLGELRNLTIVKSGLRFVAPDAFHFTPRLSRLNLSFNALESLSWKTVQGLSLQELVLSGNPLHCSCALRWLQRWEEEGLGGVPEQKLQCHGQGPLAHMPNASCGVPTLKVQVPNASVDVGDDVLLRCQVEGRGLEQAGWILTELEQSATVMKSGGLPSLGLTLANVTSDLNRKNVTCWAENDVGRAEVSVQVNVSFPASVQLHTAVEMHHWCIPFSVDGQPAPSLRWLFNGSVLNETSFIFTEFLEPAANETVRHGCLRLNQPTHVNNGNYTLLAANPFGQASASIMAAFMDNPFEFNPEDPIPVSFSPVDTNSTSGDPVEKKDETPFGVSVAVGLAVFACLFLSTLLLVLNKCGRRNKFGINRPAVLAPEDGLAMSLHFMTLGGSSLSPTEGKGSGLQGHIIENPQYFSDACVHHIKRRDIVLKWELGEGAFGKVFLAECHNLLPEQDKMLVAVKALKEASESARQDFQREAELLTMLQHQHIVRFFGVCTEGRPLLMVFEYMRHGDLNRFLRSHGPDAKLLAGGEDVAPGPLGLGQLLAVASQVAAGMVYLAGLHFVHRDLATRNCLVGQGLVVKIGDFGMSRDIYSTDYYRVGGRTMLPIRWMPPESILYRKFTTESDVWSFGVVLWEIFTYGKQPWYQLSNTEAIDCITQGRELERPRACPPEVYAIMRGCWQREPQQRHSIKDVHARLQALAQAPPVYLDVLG

Structure (SMILES)	IC50 [1] [nM]	IC50 [2] [nM]
CCc1ccc(Nc2ccc(Cc3c[nH]c4ncnc(OCCOC)c34)c(F)n2)cn1 [Compound P-4016, (6-Ethyl-pyridin-3-yl)-{6-fluoro-5-[4-(2-methoxy-ethoxy)-7H-pyrrolo[2,3-d]pyrimidin-5-ylmethyl]-pyridin-2-yl}-amine]	< 10	< 10
COc1ccc(Nc2ccc(C(=O)c3c[nH]c4ncc(C)cc34)c(F)n2)cn1 [Compound P-3040, [2-Fluoro-6-(6-methoxy-pyridin-3-ylamino)-pyridin-3-yl]-(5-methyl-1H-pyrrolo[2,3-b]pyridin-3-yl)-methanone]	< 100	< 10
CCc1ccc(Nc2ccc(Cc3c[nH]c4ncnc(C5CC5)c34)c(F)n2)cn1 [Compound P-4028, [5-(4-Cyclopropyl-7H-pyrrolo[2,3-d]pyrimidin-5-ylmethyl)-6-fluoro-pyridin-2-yl]-(6-ethyl-pyridin-3-yl)-amine]	< 100	< 10
COc1ccccc1Nc1ncc(Cc2c[nH]c3ncc(Cl)cc23)cn1 [Compound P-3016, [5-(5-Chloro-1H-pyrrolo[2,3-b]pyridin-3-ylmethyl)-pyrimidin-2-yl]-(2-methoxy-phenyl)-amine]	< 100	> 1000
CCOc1ncnc2[nH]cc(C(=O)c3ccc(Nc4ccc(OC)nc4)nc3F)c12 [Compound P-4025, (4-Ethoxy-7H-pyrrolo[2,3-d]pyrimidin-5-yl)-[2-fluoro-6-(6-methoxy-pyridin-3-ylamino)-pyridin-3-yl]-methanone]	< 1000	< 100
CCn1cc(Nc2ccc(Cc3c[nH]c4ncnc(OCCOC)c34)c(F)n2)cn1 [Compound P-4014, (1-Ethyl-1H-pyrazol-4-yl)-{6-fluoro-5-[4-(2-methoxy-ethoxy)-7H-pyrrolo[2,3-d]pyrimidin-5-ylmethyl]-pyridin-2-yl}-amine]	< 1000	> 1000
CCc1ccc(Nc2ccc(C(=O)c3c[nH]c4ncnc(C5CC5)c34)c(F)n2)cn1 [Compound P-4029, (4-Cyclopropyl-7H-pyrrolo[2,3-d]pyrimidin-5-yl)-[6-(6-ethyl-pyridin-3-ylamino)-2-fluoro-pyridin-3-yl]-methanone]	< 10	< 10
